Results from PubChem BioAssay AID652132 (Broad Institute, 2013).

Test system: Signal transducer and activator of transcription 1 (STAT1), rat
Assay: reduction of cytokine-raised STAT1 and pSTAT1, late-stage follow-up, mechanism study, cell-based, rat, cytokine stimulus, time course (AID 652132)
Conditions: INS-1E cells, cytokine-induced STAT1/pSTAT1 western blot, at 10 µM, stronger effect = higher value

p-STAT1 inhibition, 24 h: 65% | inhibition (measured here: p-STAT1 inhibition 8 h): 97% | inhibition (measured here: p-STAT1 inhibition 12 h): 80% | inhibition (measured here: total STAT1 inhibition 8 h): 69% | inhibition (measured here: total STAT1 inhibition 12 h): 53% | inhibition (measured here: total STAT1 inhibition 24 h): 43%
SMILES: C[C@@H]1CN([C@@H](C)CO)C(=O)c2cccc(NC(=O)Nc3cccc4ccccc34)c2O[C@H]1CN(C)S(=O)(=O)c1ccc2c(c1)OCCO2
